Assay results published in US7262202B2, “Inhibitors of cyclin dependent kinases as anti-cancer agent” (Cyclacel Limited, priority 2001, dated 2007).

Experiments:
[1] = 72-h MTT cellular proliferation assay, IMR90; type: cell-based; conditions: human, IMR90 cells (non-transformed); non-transformed cell line IMR90, 72-h MTT; read-out: Cytotoxicity (IC50, μM) IMR90
Procedure: (§1) Selected compounds from the above examples were subjected to a standard cellular proliferation assay using a range of different human tumour cell lines. Standard 72-h MTT (thiazolyl blue; 3-[4,5-dimethylthiazol-2-yl]-2,5-diphenyltetrazolium bromide) assays were performed (Haselsberger, K.; Peterson, D. C.; Thomas, D. G.; Darling, J. L. Anti Cancer Drugs 1996, 7, 331–8; Loveland, B. E.; Johns, T. G.; Mackay, I. R.; Vaillant, F.; Wang, Z. X.; Hertzog, P. J. Biochemistry International 1992, 27, 501–10). Human tumour cell lines were obtained from the ATCC (American Type Culture Collection, 10801 University Boulevard, Manessas, Va. 20110-2209, USA).

human tumour cell lines = test: cell-based anti-proliferative assays
From the text: These assays, including methods for their performance, are described in more detail in Example 3. Using such cell line and enzymes assays it may be determined whether a compound is anti-proliferative in the context of the present invention.
as §1

[2] = 72-h MTT cellular proliferation assay, Hs27; type: cell-based; conditions: human, Hs27 cells (non-transformed); non-transformed cell line Hs27, 72-h MTT; read-out: Cytotoxicity (IC50, μM) Hs27
Procedure: as §1

CDK2/cyclin E = molecular target: T1, CDK2/cyclin E (Homo sapiens, UniProt P24941); test: CDK2/Cyclin E kinase assay (GST-Rb phosphorylation, radiolabelled ATP); type: biochemical; conditions: bound stated, (±0.05); read-out: IC50 for cdk2/cyclinE;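 also: enzyme was His-tagged CDK2/cyclin E co-expressed in baculovirus-infected Sf9 insect cells and purified over a metal-chelate column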
T1 construct: His; made in house; host or cells: Sf9 insect cells (baculovirus)

[3] = 72-h MTT cellular proliferation assay, W138; type: cell-based; conditions: human, W138 cells (non-transformed); non-transformed cell line W138, 72-h MTT; read-out: Cytotoxicity (IC50, μM) W138
Procedure: as §1

HeLa = test: 72-h MTT cellular proliferation assay, HeLa; type: cell-based; conditions: human tumour cell line HeLa, read-out: Cytotoxicity (IC50, μM) HeLa
From the text: (§2) Selected compounds from the above examples were subjected to a standard cellular proliferation assay using a range of different human tumour cell lines.

HT29 = test: 72-h MTT cellular proliferation assay, HT29; type: cell-based; conditions: HT-29; human tumour cell line HT29, 72-h MTT; read-out: Cytotoxicity (IC50, μM) HT29
From the text: as §2

A549 = test: 72-h MTT cellular proliferation assay, A549; type: cell-based; conditions: human tumour cell line A549, 72-h MTT; read-out: Cytotoxicity (IC50, μM) A549
From the text: as §2

Saos-2 = test: 72-h MTT cellular proliferation assay, Saos-2; type: cell-based; conditions: human tumour cell line Saos-2, 72-h MTT; read-out: Cytotoxicity (IC50, μM) Saos-2
From the text: as §2

MCF7 = test: 72-h MTT cellular proliferation assay, MCF7; type: cell-based; conditions: human tumour cell line MCF7, 72-h MTT; read-out: Cytotoxicity (IC50, μM) MCF7
From the text: as §2

Structure (SMILES): Cc1[nH]c(C#N)c(C)c1-c1ccnc(Nc2ccc(F)cc2)n1 [Compound 32, 4-[2-(4-Fluoro-phenylamino)-pyrimidin-4-yl]-3,5-dimethyl-1H-pyrrole-2-carbonitrile]
- IC50 at 72 h [1]: 20.8 µM
- anti-proliferative activity in cell-based assays (human tumour cell lines): particularly effective anti-proliferative agents
- IC50 at 72 h [2]: 15.1 µM
- IC50 (CDK2/cyclin E): < 500 nM
- IC50 at 72 h [3]: 9.6 µM

Structure (SMILES): Cc1[nH]c(C#N)c(C)c1-c1ccnc(Nc2ccc(I)cc2)n1 [Compound 35, 4-[2-(4-Iodo-phenylamino)-pyrimidin-4-yl]-3,5-dimethyl-1H-pyrrole-2-carbonitrile]
- IC50 (HeLa): 0.09 µM
- IC50 at 72 h [1]: 37.3 µM
- anti-proliferative activity in cell-based assays (human tumour cell lines): particularly effective anti-proliferative agents
- IC50 at 72 h [2]: 35.1 µM
- IC50 (CDK2/cyclin E): < 500 nM
- IC50 at 72 h [3]: 21.3 µM
- IC50 (HT29): 0.11 µM
- IC50 (A549): 0.51 µM
- IC50 (Saos-2): 0.75 µM
- IC50 (MCF7): 0.45 µM
- melting point: 178.3 to 181.2 °C

Structure (SMILES): Cc1[nH]c(Br)c(C)c1-c1ccnc(Nc2cccc([N+](=O)[O-])c2)n1 [Compound 51, [4-(5-Bromo-2,4-dimethyl-1H-pyrrol-3-yl)-pyrimidin-2-yl]-(3-nitro-phenyl)-amine]
- anti-proliferative activity in cell-based assays (human tumour cell lines): particularly effective anti-proliferative agents
- IC50 (CDK2/cyclin E): < 500 nM
- IC50 (HT29): 2.92 µM
- IC50 (A549): 7.56 µM
- IC50 (Saos-2): 12.4 µM
- melting point: 198.1 to 203 °C

Structure (SMILES): Cc1[nH]c(CN(C)C)c(C)c1-c1ccnc(Nc2ccc(F)cc2)n1 [Compound 54, [4-(5-Dimethylaminomethyl-2,4-dimethyl-1H-pyrrol-3-yl)-pyrimidin-2-yl]-(4-fluoro-phenyl)-amine]
- anti-proliferative activity in cell-based assays (human tumour cell lines): particularly effective anti-proliferative agents
- IC50 (CDK2/cyclin E): < 500 nM
- IC50 (HT29): 3.2 µM
- IC50 (A549): 2.76 µM
- IC50 (Saos-2): 0.7 µM
- melting point: 88.4 to 91.6 °C
